What was measured:
Experiment in all cases: Inhibition of cell proliferation (MTT)
Format in all cases: cell-based
A3 = conditions: Homo sapiens; A3, Leukemia; 48 hours
Protocol: (§1) Inhibition of cell proliferation is determined in human tumor cell lines. Innoculation density and doubling times for specific cell lines are listed at World Wide Web URL “dtp.nci.nih.gov/docs/misc/common_files/cell_list.html.”
(§2) • 1. Plate adherent cells the day before starting the experiment in 180 μl growth media (see list hereafter). • 2. Day of experiment, count and plate suspension cells in 180 μl growth media (see list on next page). • 3. Make 10× Compound, vehicle, and chemotherapeutic cocktail • a. Compound (1× to 10×) • i. 10 μM Compound to 100 μM • ii. 3 μM Compound to 30 μM • iii. 1 μM Compound to 10 μM • iv. 0.3 μM Compound to 3 μM • v. 0.1 μM Compound to 1 μM • b. Vehicle • i. PBS, equivalent to the volume used for 10 μM Compound (1× is ˜0.06% PBS) • c. Chemotherapeutic cocktail (1× to 10×): • i. 1 μM Velcade to 10 μM • ii. 100 μM Etoposide to 1 mM • iii. 20 μM Taxol to 200 μM • 4. Add 20 μl of the 10× compound/vehicle/chemotherapeutic cocktail to cells. • 5. Incubate at 37° C., 5% CO2 for 48 hours. • 6. Aspirate media. For suspension cells, spin plate at 1500 RPM for 10 minutes. Use a multichannel pipettor to slowly remove media. • 7. Add 200 μl of Thiazolyl Blue Tetrazolium Bromide (MTT) to each well: 0.863 mg/ml MTT in growth media.
(§3) Proliferation of several cancer cells was inhibited by compound TA1-1B (which is a particular mixture of the isomers represented by TA1-1A), as shown in the following table (Table 1). The value EC50 is the amount of Compound TA1-1B that results in 50% inhibition of proliferation of the indicated cell type.

COLO 205 = conditions: Homo sapiens; COLO 205, Colon; 48 hours
Protocol: as §1, §2, §3

EKVX = conditions: Homo sapiens, Non Small Cell Lung, 48 hours
Protocol: as §1, §2, §3

H9 = conditions: Homo sapiens; H9, Lymphoma; 48 hours
Protocol: as §1, §2, §3

HCT-15 = conditions: Homo sapiens; HCT-15, Colon; 48 hours
Protocol: as §1, §2, §3

HS 578T = conditions: Homo sapiens, Breast, 48 hours
Protocol: as §1, §2, §3

Hs602 = conditions: Homo sapiens; Hs602, Lymphoma; 48 hours
Protocol: as §1, §2, §3

HuT102 = conditions: Homo sapiens, HuT-102; HuT102, Lymphoma; 48 hours
Protocol: as §1, §2, §3

JM1 = conditions: Homo sapiens; JM1, Lymphoma; 48 hours
Protocol: as §1, §2, §3

Jgamma-1 = conditions: Homo sapiens, J.gamma1; Jgamma-1, Leukemia; 48 hours
Protocol: as §1, §2, §3

KG-1 = conditions: Homo sapiens; KG-1, Leukemia; 48 hours
Protocol: as §1, §2, §3

KM12 = conditions: Homo sapiens; KM12, Colon; 48 hours
Protocol: as §1, §2, §3

Karpas299 = conditions: Homo sapiens, KARPAS-299; Karpas299, Lymphoma; 48 hours
Protocol: as §1, §2, §3

M14 = conditions: Homo sapiens; M14, Melanoma; 48 hours
Protocol: as §1, §2, §3

MC116 = conditions: Homo sapiens; MC116, Lymphoma; 48 hours
Protocol: as §1, §2, §3

MOLT-3 = conditions: Homo sapiens; MOLT-3, Leukemia; 48 hours
Protocol: as §1, §2, §3

MOLT-4 = conditions: Homo sapiens; MOLT-4, Leukemia; 48 hours
Protocol: as §1, §2, §3

NCI-H322M = conditions: Homo sapiens, Non Small Cell Lung, 48 hours
Protocol: as §1, §2, §3

NCI/ADR-RES = conditions: Homo sapiens, Breast, 48 hours
Protocol: as §1, §2, §3

OVCAR-4 = conditions: Homo sapiens; OVCAR-4, Ovarian; 48 hours
Protocol: as §1, §2, §3

PC-3 = conditions: Homo sapiens; PC-3, Prostate; 48 hours
Protocol: as §1, §2, §3

SF-295 = conditions: Homo sapiens; SF-295, CNS; 48 hours
Protocol: as §1, §2, §3

SF-539 = conditions: Homo sapiens; SF-539, CNS; 48 hours
Protocol: as §1, §2, §3

SN12C = conditions: Homo sapiens, Renal, 48 hours
Protocol: as §1, §2, §3

SNB-19 = conditions: Homo sapiens; SNB-19, CNS; 48 hours
Protocol: as §1, §2, §3

SUDHL4 = conditions: Homo sapiens, SU-DHL-4; SUDHL4, Lymphoma; 48 hours
Protocol: as §1, §2, §3

T-47D = conditions: Homo sapiens, T47D, Breast, 48 hours
Protocol: as §1, §2, §3

THP-1 = conditions: Homo sapiens; THP-1, Leukemia; 48 hours
Protocol: as §1, §2, §3

TK-10 = conditions: Homo sapiens; TK-10, Renal; 48 hours
Protocol: as §1, §2, §3

U266B1 = conditions: Homo sapiens; U266B1, Lymphoma; 48 hours
Protocol: as §1, §2, §3

UO-31 = conditions: Homo sapiens; UO-31, Renal; 48 hours
Protocol: as §1, §2, §3

Work on `CN1CCC[C@H]1CCNC(=O)c1cn2c3c(c(N4CCC(c5cnccn5)C4)c(F)cc3c1=O)Oc1cc3ccccc3cc1-2` (stereo partly shown) [TA1-1B] yielded an EC50 (A3) of 3.63 µM, an EC50 (COLO 205) of 0.707 µM and an EC50 (EKVX) of 5.67 µM. For the same compound, the EC50 (H9) was 2.24 µM, the EC50 (HCT-15) was 1.51 µM and the EC50 (HS 578T) was 1.94 µM. The EC50 (Hs602) was 1.28 µM, the EC50 (HuT102) was 1.05 µM and the EC50 (JM1) was 2.23 µM. The EC50 (Jgamma-1) was 1.72 µM, the EC50 (KG-1) was 3.97 µM and the EC50 (KM12) was 3.06 µM. The EC50 (Karpas299) was 3.92 µM, the EC50 (M14) was 4.98 µM and the EC50 (MC116) was 3.87 µM. It also gave an EC50 (MOLT-3) of 1.14 µM, an EC50 (MOLT-4) of 1.21 µM and an EC50 (NCI-H322M) of 4.28 µM. The EC50 (NCI/ADR-RES) was 1.62 µM, the EC50 (OVCAR-4) was 2.96 µM and the EC50 (PC-3) was 4.96 µM. It also gave an EC50 (SF-295) of 4.27 µM, an EC50 (SF-539) of 1.11 µM and an EC50 (SN12C) of 4.16 µM. The EC50 (SNB-19) was 4.63 µM, the EC50 (SUDHL4) was 1.34 µM and the EC50 (T-47D) was 6.56 µM. It also gave an EC50 (THP-1) of 3.18 µM, an EC50 (TK-10) of 3.33 µM and an EC50 (U266B1) of 1.62 µM. For the same compound, the EC50 (UO-31) was 2.39 µM.
